These results are taken from US11572590B2, “Methods for evaluating tumor cell spheroids using 3D microfluidic cell culture device” (Dana-Farber Cancer Institute, Inc., priority 2017, dated 2023).

Holding throughout (experiment): SelectScreen Kinase Profiling, single point inhibition and IC50 for off-target kinases
Type in all cases: biochemical

The target of assay [1] is off-target kinases (Homo sapiens, UniProt P00519, Q252H). The following applies: ABL1 Q252H, LanthaScreen Binding.
Assay [2] deals with off-target kinases (Homo sapiens, UniProt P22694). Conditions: PRKACB (PRKAC beta), LanthaScreen Binding. A general note: TR-FRET usually uses a lanthanide donor and a delayed reading to cut background.
The target of assay [3] is T1, off-target kinases (Homo sapiens, UniProt Q8IWQ3).
T1 sequence (Q8IWQ3 1-736): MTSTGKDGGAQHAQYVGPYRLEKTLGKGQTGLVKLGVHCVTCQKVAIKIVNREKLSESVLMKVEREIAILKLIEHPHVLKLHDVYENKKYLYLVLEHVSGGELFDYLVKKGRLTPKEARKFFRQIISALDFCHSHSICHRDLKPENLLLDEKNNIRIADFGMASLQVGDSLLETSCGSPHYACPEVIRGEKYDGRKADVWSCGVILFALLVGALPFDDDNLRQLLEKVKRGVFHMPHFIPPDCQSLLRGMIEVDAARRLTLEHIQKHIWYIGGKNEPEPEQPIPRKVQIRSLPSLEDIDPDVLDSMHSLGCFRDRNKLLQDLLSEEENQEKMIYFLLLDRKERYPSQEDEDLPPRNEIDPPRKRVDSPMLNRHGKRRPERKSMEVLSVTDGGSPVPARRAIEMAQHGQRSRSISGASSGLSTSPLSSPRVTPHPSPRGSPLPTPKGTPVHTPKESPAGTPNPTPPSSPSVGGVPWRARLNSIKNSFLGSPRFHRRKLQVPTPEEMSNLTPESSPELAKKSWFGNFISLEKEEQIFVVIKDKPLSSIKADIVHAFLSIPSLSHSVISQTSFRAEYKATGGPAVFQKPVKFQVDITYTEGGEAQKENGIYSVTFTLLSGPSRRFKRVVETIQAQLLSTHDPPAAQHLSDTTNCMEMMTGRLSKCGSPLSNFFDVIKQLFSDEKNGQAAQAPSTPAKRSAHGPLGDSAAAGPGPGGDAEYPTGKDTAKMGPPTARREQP
Conditions: BRSK2, LanthaScreen Binding.

The target in assay [4] is T2, off-target kinases (Homo sapiens, UniProt Q8TF76).
T2 sequence (Q8TF76 1-798): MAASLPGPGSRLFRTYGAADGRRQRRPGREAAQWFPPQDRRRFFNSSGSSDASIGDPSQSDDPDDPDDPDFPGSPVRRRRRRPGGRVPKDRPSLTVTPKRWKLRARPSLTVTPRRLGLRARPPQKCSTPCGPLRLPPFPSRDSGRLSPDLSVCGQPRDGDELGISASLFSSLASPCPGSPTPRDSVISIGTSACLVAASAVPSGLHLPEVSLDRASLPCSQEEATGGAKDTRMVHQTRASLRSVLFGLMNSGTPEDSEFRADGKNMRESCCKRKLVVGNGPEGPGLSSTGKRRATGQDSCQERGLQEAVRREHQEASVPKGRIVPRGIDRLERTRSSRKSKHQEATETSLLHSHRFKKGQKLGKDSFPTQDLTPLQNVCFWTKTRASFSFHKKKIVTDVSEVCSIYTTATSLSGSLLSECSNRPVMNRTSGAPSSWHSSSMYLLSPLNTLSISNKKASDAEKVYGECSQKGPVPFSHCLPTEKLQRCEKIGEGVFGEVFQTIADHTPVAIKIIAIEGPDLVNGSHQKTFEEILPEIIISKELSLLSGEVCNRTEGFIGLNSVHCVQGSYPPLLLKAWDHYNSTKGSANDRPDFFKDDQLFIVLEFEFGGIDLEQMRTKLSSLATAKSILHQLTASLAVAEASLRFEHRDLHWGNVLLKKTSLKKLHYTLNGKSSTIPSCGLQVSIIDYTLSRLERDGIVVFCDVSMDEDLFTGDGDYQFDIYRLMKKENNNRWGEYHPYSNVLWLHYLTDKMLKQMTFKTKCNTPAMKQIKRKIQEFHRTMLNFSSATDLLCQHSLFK
Conditions: GSG2 (Haspin); Cmpd1 1000 μM; ATP Km app; Adapta.

Each structure is given as a SMILES string. Where two headings read alike, the source gives them in different places.

In general, inhibition refers to the relative decrease from the control value, in per cent. On to `N#Cc1cc(-c2ncnc(Nc3ccc(N4CCN(C5COC5)CC4)cc3)n2)ccc1OC1CCOCC1` [Compound 1, 5-(4-((4-(4-(oxetan-3-yl)piperazin-1-yl)phenyl)amino)-1,3,5-triazin-2-yl)-2-((tetrahydro-2H-pyran-4-yl)oxy)benzonitrile], for which the inhibition in assay [1] (read-out: % Inhibition 1) was found to be 52%; in assay [1] (read-out: % Inhibition 2) it was 41%; in assay [1] (read-out: % Inhibition Avg), 46%; in assay [2] (read-out: % Inhibition 1), 16%; in assay [2] (read-out: % Inhibition 2) it was 18%; in assay [2] (read-out: % Inhibition Avg), 17%. Also, the inhibition in assay [3] (read-out: % Inhibition 1) turned out to be 16%; in assay [3] (read-out: % Inhibition 2), 17%; in assay [3] (read-out: % Inhibition Avg), 17%. For the same molecule, in assay [4], the “% Inhibition 1” value stood at 7%. In addition, the “% Inhibition 2” value in assay [4] is reported as −20%. In addition, the “% Inhibition Avg” value in assay [4] is given as −6%.
